{"source": "patent US5593965A", "about": "“Anti-tumor effects of GnRH-III” (Creighton University, priority 1994, dated 1997)", "key": {"MDA-MB-231 cell line": {"system": "MDA-MB-231 cell line", "format": "cell-based, human", "details": "dose range 1-50 μM", "source_text": "(§1) Two human breast cancer cell lines were used. They were: (1) the estrogen receptor positive MCF-7 cell line and (2) the estrogen receptor negative MDA-MB-231 cell line. Both cell lines contain GnRH receptors. These cell lines were used to illustrate the anticancer effects of GnRH-III. The cells were maintained in Dulbecco-modified Eagle-minimal essential medium (DMEM, GIBCO) containing 10% fetal calf serum (10% FCS). The clonogenic assay provides information on the cell damaging effects of a substance in a dose-dependent manner. Three hundred cells were transferred into 35 mm Petri dishes in 2.5 ml of medium. On the following day, the cultures were treated with 1, 5, 10, 20, 30 and 50 μM doses of GnRH-III. Colonies which developed from specific cells were stained with crystal violet and counted on days 8 to 12 after treatment. Colony numbers of untreated control cultures were counted for comparison."}, "MCF-7 cell line": {"system": "MCF-7 cell line", "format": "cell-based, human", "details": "dose range 1-50 μM", "source_text": "as §1"}, "rat pituitary cells": {"system": "rat pituitary cells", "assay": "Superfused rat pituitary cell system (LH release)", "format": "cell-based", "description": "The GnRH activity of the peptides were assayed by using the superfused rat pituitary cell system as described by Vigh and Schally, Peptides, 5:241-247, Suppl. 1, (1984) and Csernus and Schally, Neuroendocrine Research Methods, Greenstein, B., ed., Harwood Academic Publishers, London, pp66-102 (1985). Mixed cell populations of four regularly cycling female rats, at random stages of the estrous cycle, were used in each chamber of a superfusion apparatus. The cells were perfused for 12 hours with Medium 199 (Sigma) at a flow rate of 20 ml/hour, prior to administration of the peptides. […] The peptide-containing solutions are prepared from the stock solution immediately before use. At the beginning of each experiment, cells were rechallenged with potassium to check the secretability of Luteinizing Hormone, independent of the participation of specific hormone recptors. Fractions, 1 ml per 3 minutes, were collected and the concentration of Luteinzing Hormone was determined by radioimmunoassay. NIAMD radioimmunoassay kits were used for the Luteinizing Hormone and Follicle Stimulating Hormone assays. The superfusion data was analyzed by the computer program of Csernus and Schally (1985)."}, "ovulation in rats [1]": {"system": "ovulation in rats", "details": "cited from earlier work"}, "[2]": {"system": "human breast cancer cell lines", "format": "cell-based", "source_text": "as §1, with “comparison. The antiproliferation assay used herein measures the inhibition of cell proliferation due to drug exposure. Loose subconfluent cultures (6×10^5 -1×10^6 cells) in 100 mm Petri dishes were initiated and treated with 1, 5, 10, 20, 30 and 50 μM doses of GnRH-III on every other day for various periods of time. On day 6, the cell numbers of both control and treated cultures were counted in a Neubauer-type hemocytometer.” for “comparison.”"}, "ovulation in rats [3]": {"system": "ovulation in rats", "assay": "In vivo assay of inhibition of ovulation (chemical castration)", "set-up": "species or system rat", "description": "Adult female rates(Wistar-R-Amsterdam), 200-250 grams, housed under controlled lighting (light period 05:00 to 19:00) with free access to pelleted food and tap water were used herein. For the in vivo assay of inhibition of ovulation, aliquots of peptide solutions were injected subcutaneously into female rats at noon on the day of proestrous for single-dose tests and every day at noon for long term tests. Only rats which had previously shown three consecutive regular 4-day cycles, as indicated by vaginal smears test, were used herein. Animals were ovariectomized on the day of the first diestrous after the injection. Oviducts were prepared under stereo-microscope and tested for ova as is well known in the art."}}, "note": "Entries after “also recorded” stand apart in the source; their conditions may differ."}
{"compound": "[B-Asp(α-diethylamide^6 ],Gln^8)GnRH [TH-332, reference compound]", "values": [{"measurement": "colony formation", "setting": "MDA-MB-231 cell line", "value": "did not inhibit colony formation"}, {"measurement": "colony formation", "setting": "MCF-7 cell line", "value": "did not inhibit colony formation"}]}
{"compound": "human GnRH: hypothalamic peptide hormone stimulating release of Luteinizing Hormone and Follicle Stimulating Hormone (QHWSYGLRPG; Gonadoliberin-1; UniProt P01148 24-33, looked up) [reference compound]", "values": [{"measurement": "induction of LH release", "setting": "rat pituitary cells; doses 10^-9 -10^-7 M", "value": "did not induce Luteinizing Hormone (LH)-release"}, {"measurement": "inhibition of LH release induced by native GnRH", "setting": "rat pituitary cells; doses 10^-9 -10^-7 M", "value": "neither did it inhibit the LH-release induced by native GnRH"}, {"measurement": "effective doses on ovulation", "setting": "ovulation in rats [1]", "value": "10^-9 to 10^-7 M"}]}
{"compound": "NCCCC[C@H](NC(=O)[C@H](Cc1c[nH]c2ccccc12)NC(=O)[C@H](CC(=O)O)NC(=O)[C@H](Cc1c[nH]cn1)NC(=O)[C@H](CO)NC(=O)[C@H](Cc1c[nH]c2ccccc12)NC(=O)[C@H](Cc1c[nH]cn1)NC(=O)[C@@H]1CCC(=O)N1)C(=O)N1CCC[C@H]1C(=O)NCC(N)=O", "note": "[GnRH-III]", "values": [{"measurement": "decrease in cloning efficiency", "setting": "[2]; at 30 μM", "value": "65-80%"}, {"measurement": "anticancer activity compared with other GnRH analogs", "setting": "[2]; in vitro, human breast cancer cell lines", "value": "surpass that of the well known agonists Buserelin, Decapeptyl and Ovurelin, and to approximate that of the antagonists SB-30 and MI-1544"}, {"measurement": "LH release at high concentration", "setting": "rat pituitary cells; 10^-6 M", "value": "did cause LH release"}, {"measurement": "agonist/antagonist character in mammalian pituitary gland", "setting": "rat pituitary cells; doses of 10^-9 to 10^-7 M", "value": "neither agonist, nor antagonist"}, {"measurement": "colony formation", "setting": "MDA-MB-231 cell line", "value": "inhibited colony formation"}, {"measurement": "colony formation", "setting": "MCF-7 cell line", "value": "inhibited colony formation"}, {"measurement": "influence on ovulation", "setting": "ovulation in rats [3]; female rats, subcutaneous, doses of 10^-9 to 10^-7 M", "value": "no influence on ovulation"}, {"measurement": "function of gonads", "setting": "ovulation in rats [3]; rats", "value": "did not influence the function of gonads; also recorded: does not influence gonadal function"}, {"measurement": "histology of ovary", "setting": "ovulation in rats [3]; rats, repeated injections", "value": "did not change histology of ovary; also recorded: did not change the histological character of ovary"}]}
